Measurements published in patent US8017602B2, “N-(2-(2-(5-hydroxy-3-oxo-3,4-dihydro-2H-benzo[b][1,4]oxazin-8-yl)ethylamino)ethyl)-3-(phenethoxy)propanamide derivatives, processes for their preparation, pharmaceutical compositions containing them and their use in therapy” (AstraZeneca AB, priority 2008, dated 2011).
Counter-ions that a name gives are not always drawn.

Target: T1, Adrenergic β2 (Homo sapiens, UniProt P07550)
T1 construct: Adherent H292 cells were removed from tissue culture flasks; endogenous in cells; host or cells: H292 cells
T1 sequence (P07550 whole entry): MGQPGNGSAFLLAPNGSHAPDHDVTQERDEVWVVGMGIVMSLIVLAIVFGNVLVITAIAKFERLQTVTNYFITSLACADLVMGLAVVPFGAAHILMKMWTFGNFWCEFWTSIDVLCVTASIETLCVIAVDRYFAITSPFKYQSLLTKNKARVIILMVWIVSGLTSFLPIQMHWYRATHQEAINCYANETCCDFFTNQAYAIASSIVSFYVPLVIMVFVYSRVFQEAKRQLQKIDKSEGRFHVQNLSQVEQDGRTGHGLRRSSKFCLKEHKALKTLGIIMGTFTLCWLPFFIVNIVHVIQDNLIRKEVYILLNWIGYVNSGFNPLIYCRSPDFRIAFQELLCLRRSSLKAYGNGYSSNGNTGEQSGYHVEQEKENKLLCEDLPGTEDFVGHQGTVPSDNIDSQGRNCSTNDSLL
Test: Adrenergic β2 mediated cAMP production in H292 cells (AlphaScreen cAMP detection)
Type: cell-based
Conditions: for β2 Int Act: Intrinsic Activity, fraction relative to the maximum activity determined for formoterol; for EC50: cAMP production, 60 min at room temperature, 300 μM rolipram, read-out: β2 pEC50 (converted)
Description: H292 cells were grown in 225 cm2 flasks incubator at 37° C., 5% CO2 in RPMI medium containing, 10% (v/v) FBS (foetal bovine serum) and 2 mM L-glutamine.
Adherent H292 cells were removed from tissue culture flasks by treatment with Accutase™ cell detachment solution for 15 min. Flasks were incubated for 15 min in a humidified incubator at 37° C., 5% CO2. Detached cells were re-suspended in RPMI media (containing 10% (v/v) FBS and 2 mM L-glutamine) at […]. 10000 cells in 100 μl were added to each well of a tissue-culture-treated 96-well plate and the cells incubated overnight in a humidified incubator at 37° C., 5% CO2. The culture media was removed and cells were washed twice with 100 μl assay buffer and replaced with 50 μL assay buffer (HBSS solution containing 10 mM HEPES pH7.4 and 5 mM glucose). Cells were rested at room temperature for 20 min after which time 25 μl of rolipram (1.2 mM made up in assay buffer containing 2.4% (v/v) dimethylsulphoxide) was added. Cells were incubated with rolipram for 10 min after which time test compounds were added and the cells were incubated for 60 min at room temperature. The final rolipram concentration in the assay was 300 μM and final vehicle concentration was 1.6% (v/v) dimethylsulphoxide. The reaction was stopped by removing supernatants, washing once with 100 μL assay buffer and replacing with 50 μL lysis buffer. The cell monolayer was frozen at −80° C. for 30 min (or overnight).
AlphaScreen™ cAMP Detection
The concentration of cAMP (cyclic adenosine monophosphate) in the cell lysate was determined using AlphaScreen™ methodology. The frozen cell plate was thawed for 20 min on a plate shaker then 10 μl of the cell lysate was transferred to a 96-well white plate. 40 μL of mixed AlphaScreen™ detection beads pre-incubated with biotinylated cAMP, was added to each well and the plate incubated at room temperature for 10 h in the dark. The AlphaScreen™ signal was measured using an EnVision spectrophotometer (Perkin-Elmer Inc.) with the recommended manufacturer's settings. cAMP concentrations were determined by reference to a calibration curve determined in the same experiment using standard cAMP concentrations. Concentration response curves for agonists were constructed and data was fitted to a four parameter logistic equation to determine both the pEC50 and Intrinsic Activity. Intrinsic Activity was expressed as a fraction relative to the maximum activity determined for formoterol in each experiment.

β2 Int Act | EC50 [µM] | Structure (SMILES)
0.91 | 0.0158 | Cc1nc(-c2cccc(CCOCCC(=O)N(CCNCCc3ccc(O)c4c3OCC(=O)N4)C3CCCCC3)c2)no1 [Example 27, N-Cyclohexyl-N-(2-(2-(5-hydroxy-3-oxo-3,4-dihydro-2H-benzo[b][1,4]oxazin-8-yl)ethylamino)ethyl)-3-(3-(5-methyl-1,2,4-oxadiazol-3-yl)phenethoxy)propanamide Trifluoroacetic Acid Salt]
1.03 | 0.0126 | Cc1nc(-c2cccc(CCOCCC(=O)N(CCNCCc3ccc(O)c4c3OCC(=O)N4)C3CCCCC3)c2)cn1C [Example 35, N-Cyclohexyl-3-(3-(1,2-dimethyl-1H-imidazol-4-yl)phenethoxy)-N-(2-(2-(5-hydroxy-3-oxo-3,4-dihydro-2H-benzo[b][1,4]oxazin-8-yl)ethylamino)ethyl)propanamide Trifluoroacetic Acid Salt]
0.93 | 0.00316 | Cn1cc(-c2cccc(CCOCCC(=O)N(CCNCCc3ccc(O)c4c3OCC(=O)N4)C3CCCCCC3)c2)cn1 [Example 31, N-Cycloheptyl-N-(2-(2-(5-hydroxy-3-oxo-3,4-dihydro-2H-benzo[b][1,4]oxazin-8-yl)ethylamino)ethyl)-3-(3-(1-methyl-1H-pyrazol-4-yl)phenethoxy)propanamide Trifluoroacetic Acid Salt]
0.88 | 0.0126 | C[C@@H](N(CCNCCc1ccc(O)c2c1OCC(=O)N2)C(=O)CCOCCc1cccc(-c2cnn(C)c2)c1)C(C)(C)C [Example 26, (R)—N-(3,3-Dimethylbutan-2-yl)-N-(2-(2-(5-hydroxy-3-oxo-3,4-dihydro-2H-benzo[b][1,4]oxazin-8-yl)ethylamino)ethyl)-3-(3-(1-methyl-1H-pyrazol-4-yl)phenethoxy)propanamide Trifluoroacetic Acid Salt]
0.93 | 0.0126 | CCCC[C@@H](C)N(CCNCCc1ccc(O)c2c1OCC(=O)N2)C(=O)CCOCCc1cccc(-c2cnn(C)c2)c1 [Example 30, (R)—N-(Hexan-2-yl)-N-(2-(2-(5-hydroxy-3-oxo-3,4-dihydro-2H-benzo[b][1,4]oxazin-8-yl)ethylamino)ethyl)-3-(3-(1-methyl-1H-pyrazol-4-yl)phenethoxy)propanamide Trifluoroacetic Acid Salt]
0.90 | 0.00631 | CCn1cc(-c2cccc(CCOCCC(=O)N(CCNCCc3ccc(O)c4c3OCC(=O)N4)C3CCCCC3)c2)cn1 [Example 28, N-Cyclohexyl-3-(3-(1-ethyl-1H-pyrazol-4-yl)phenethoxy)-N-(2-(2-(5-hydroxy-3-oxo-3,4-dihydro-2H-benzo[b][1,4]oxazin-8-yl)ethylamino)ethyl)propanamide]

More lines, now with the values behind:

Structure (SMILES) | β2 Int Act | EC50 [µM]
CC(C)[C@@H](C)N(CCNCCc1ccc(O)c2c1OCC(=O)N2)C(=O)CCOCCc1cccc(-c2cnn(C)c2)c1 [Example 09, (R)—N-(2-(2-(5-Hydroxy-3-oxo-3,4-dihydro-2H-benzo[b][1,4]oxazin-8-yl)ethylamino)ethyl)-3-(3-(1-methyl-1H-pyrazol-4-yl)phenethoxy)-N-(3-methylbutan-2-yl)propanamide Trifluoroacetic Acid Salt] | 0.92 | 0.00794
Cn1cc(-c2cc(CCOCCC(=O)N(CCNCCc3ccc(O)c4c3OCC(=O)N4)C3CCCCC3)ccc2F)cn1 [Example 13, N-Cyclohexyl-3-(4-fluoro-3-(1-methyl-1H-pyrazol-4-yl)phenethoxy)-N-(2-(2-(5-hydroxy-3-oxo-3,4-dihydro-2H-benzo[b][1,4]oxazin-8-yl)ethylamino)ethyl)propanamide Trifluoroacetic Acid Salt] | 0.85 | 0.01
O=C1COc2c(CCNCCN(C(=O)CCOCCc3cccc(-c4cnn(CC5CC5)c4)c3)C3CCCC3)ccc(O)c2N1 [Example 19, N-Cyclopentyl-3-(3-(1-(cyclopropylmethyl)-1H-pyrazol-4-yl)phenethoxy)-N-(2-(2-(5-hydroxy-3-oxo-3,4-dihydro-2H -benzo[b][1,4]oxazin-8-yl)ethylamino)ethyl)propanamide Trifluoroacetic Acid Salt] | 0.95 | 0.00631
O=C1COc2c(CCNCCN(C(=O)CCOCCc3cccc(-c4nn[nH]n4)c3)C3CCCCC3)ccc(O)c2N1 [Example 15, 3-(3-(2H-Tetrazol-5-yl)phenethoxy)-N-cyclohexyl-N-(2-(2-(5-hydroxy-3-oxo-3,4-dihydro-2H-benzo[b][1,4]oxazin-8-yl)ethylamino)ethyl)propanamide Trifluoroacetic Acid Salt] | 0.83 | 0.0126
Cn1nnc(-c2cccc(CCOCCC(=O)N(CCNCCc3ccc(O)c4c3OCC(=O)N4)C3CCCCC3)c2)n1 [Example 07, N-Cyclohexyl-N-(2-(2-(5-hydroxy-3-oxo-3,4-dihydro-2H-benzo[b][1,4]oxazin-8-yl)ethylamino)ethyl)-3-(3-(2-methyl-2H-tetrazol-5-yl)phenethoxy)propanamide Trifluoroacetic Acid Salt] | 0.92 | 0.0158
CCC[C@@H](C)N(CCNCCc1ccc(O)c2c1OCC(=O)N2)C(=O)CCOCCc1cccc(-c2cnn(C(C)C)c2)c1 [Example 21, (R)—N-(2-(2-(5-Hydroxy-3-oxo-3,4-dihydro-2H-benzo[b][1,4]oxazin-8-yl)ethylamino)ethyl)-3-(3-(1-isopropyl-1H-pyrazol-4-yl)phenethoxy)-N-(pentan-2-yl)propanamide Trifluoroacetic Acid Salt] | 1.00 | 0.0126
O=C1COc2c(CCNCCN(C(=O)CCOCCc3cccc(-c4cnco4)c3)C3CCCCC3)ccc(O)c2N1 [Example 10, N-Cyclohexyl-N-(2-(2-(5-hydroxy-3-oxo-3,4-dihydro-2H-benzo[b][1,4]oxazin-8-yl)ethylamino)ethyl)-3-(3-(oxazol-5-yl)phenethoxy)propanamide Trifluoroacetic Acid Salt] | 0.88 | 0.01
Cn1nnnc1-c1cccc(CCOCCC(=O)N(CCNCCc2ccc(O)c3c2OCC(=O)N3)C2CCCCC2)c1 [Example 08, N-Cyclohexyl-N-(2-(2-(5-hydroxy-3-oxo-3,4-dihydro-2H-benzo[b][1,4]oxazin-8-yl)ethylamino)ethyl)-3-(3-(1-methyl-1H-tetrazol-5-yl)phenethoxy)propanamide Trifluoroacetic Acid Salt] | 0.92 | 0.0158
CC(C)n1cc(-c2cccc(CCOCCC(=O)N(CCNCCc3ccc(O)c4c3OCC(=O)N4)C3CCCCC3)c2)nn1 [Example 12, N-Cyclohexyl-N-(2-(2-(5-hydroxy-3-oxo-3,4-dihydro-2H-benzo[b][1,4]oxazin-8-yl)ethylamino)ethyl)-3-(3-(1-isopropyl-1H-1,2,3-triazol-4-yl)phenethoxy)propanamide Trifluoroacetic Acid Salt] | 0.91 | 0.02
CC(C)n1cc(-c2cccc(CCOCCC(=O)N(CCNCCc3ccc(O)c4c3OCC(=O)N4)C3CCCC3)c2)cn1 [Example 22, N-Cyclopentyl-N-(2-(2-(5-hydroxy-3-oxo-3,4-dihydro-2H-benzo[b][1,4]oxazin-8-yl)ethylamino)ethyl)-3-(3-(1-isopropyl-1H-pyrazol-4-yl)phenethoxy)propanamide Trifluoroacetic Acid Salt] | 0.90 | 0.00794
CCn1cc(-c2cccc(CCOCCC(=O)N(CCNCCc3ccc(O)c4c3OCC(=O)N4)[C@H](C)C(C)(C)C)c2)cn1 [Example 25, (R)—N-(3,3-Dimethylbutan-2-yl)-3-(3-(1-ethyl-1H-pyrazol-4-yl)phenethoxy)-N-(2-(2-(5-hydroxy-3-oxo-3,4-dihydro-2H-benzo[b][1,4]oxazin-8-yl)ethylamino)ethyl)propanamide Trifluoroacetic Acid Salt] | 0.90 | 0.0126
CCn1cc(-c2cccc(CCOCCC(=O)N(CCNCCc3ccc(O)c4c3OCC(=O)N4)C3CCCCC3)c2)nn1 [Example 04, N-Cyclohexyl-3-(3-(1-ethyl-1H-1,2,3-triazol-4-yl)phenethoxy)-N-(2-(2-(5-hydroxy-3-oxo-3,4-dihydro-2H-benzo[b][1,4]oxazin-8-yl)ethylamino)ethyl)propanamide Trifluoroacetic Acid Salt] | 0.96 | 0.0126
